This note sets out measurements from patent publication US20240132458A1, “NLRP3 INFLAMMASOME SMALL-MOLECULE INHIBITOR FOR TREATMENT OF ALZHEIMER'S DISEASE” (AJOU UNIVERSITY INDUSTRY-ACADEMIC COOPERATION FOUNDATION, priority 2021, published 2024).

What all share (assay): Cytochrome P450 inhibition
Common to all, as to format: in vitro ADME

The target of one data set is T1, CYP1A2 (Homo sapiens, UniProt P05177).
T1 construct: pooled human liver microsomes were assayed at 0.25 mg/mL concentration; from tissue; host or cells: pooled human liver microsomes
T1 sequence (P05177 1-516): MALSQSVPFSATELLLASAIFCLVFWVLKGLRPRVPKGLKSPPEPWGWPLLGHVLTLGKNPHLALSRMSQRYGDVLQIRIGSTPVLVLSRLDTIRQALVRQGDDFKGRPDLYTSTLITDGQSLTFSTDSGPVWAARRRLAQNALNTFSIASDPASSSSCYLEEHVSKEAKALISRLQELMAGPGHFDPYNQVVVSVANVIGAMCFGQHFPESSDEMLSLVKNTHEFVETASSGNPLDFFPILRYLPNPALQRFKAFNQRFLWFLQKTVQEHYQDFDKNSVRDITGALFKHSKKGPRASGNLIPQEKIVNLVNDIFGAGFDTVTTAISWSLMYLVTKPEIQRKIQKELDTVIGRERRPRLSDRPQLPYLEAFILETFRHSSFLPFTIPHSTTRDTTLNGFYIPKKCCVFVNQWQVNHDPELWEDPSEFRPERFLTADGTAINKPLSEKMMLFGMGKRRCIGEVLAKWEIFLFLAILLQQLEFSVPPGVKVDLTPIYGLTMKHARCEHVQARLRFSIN
As to conditions: probe phenacetin (O-deethylation), pooled human liver microsomes 0.25 mg/mL, read-out: CYP inhibition (% at 10 μM) 1A2. The method, then: (§1) The inhibitory effects of NIC7 and NIC7w on the metabolism of the five major P450 probe substrates were evaluated using a previously reported method (S. Seino, Diabetologia 55, 2096-2108 (2012)) with minor modifications. A cocktail of substrates (phenacetin O-deethylase, tolbutamide 4-hydroxylase, mephenytoin 4-hydroxylase, dextromethorphan O-demethylase, and midazolam 1′-hydroxylase) was used for five major P450 enzymes, CYP1A2, CYP2C9, CYP2C19, CYP2D6, and CYP3A4, respectively. NIC7 and NIC7w were prepared at a concentration of 10 mM in DMSO and dissolved in methanol at a concentration of 1 mM. In all experiments, the final concentration of an organic solvent (methanol) for cocktail incubation was set at 1.0% (v/v). Both NIC7 and NIC7w were used at 10 μM, and pooled human liver microsomes were assayed at 0.25 mg/mL concentration. The substrate cocktail solution was incubated with the microsomes for 5 min at 37° C. The reaction was initiated by adding an NADPH-generating system (the same as described in Examples 1-5) at 37° C. and 1300 rpm. The reaction was stopped at 10 min by the addition of cold acetonitrile containing carbamazepine as an internal standard at 20 ng/mL. After vortexing and centrifugation, the supernatant was analyzed with LC-MS/MS. All microsomal incubations were performed in triplicate.

Another data set addresses T2, CYP2C19 (Homo sapiens, UniProt P33261).
T2 construct: pooled human liver microsomes were assayed at 0.25 mg/mL concentration; from tissue; host or cells: pooled human liver microsomes
As to conditions: probe mephenytoin (4-hydroxylation), pooled human liver microsomes 0.25 mg/mL, read-out: CYP inhibition (% at 10 μM) 2C19. The protocol: as §1

Another data set deals with T3, CYP2C9 (Homo sapiens, UniProt P11712).
T3 construct: pooled human liver microsomes were assayed at 0.25 mg/mL concentration; from tissue; host or cells: pooled human liver microsomes
T3 sequence (P11712 whole entry): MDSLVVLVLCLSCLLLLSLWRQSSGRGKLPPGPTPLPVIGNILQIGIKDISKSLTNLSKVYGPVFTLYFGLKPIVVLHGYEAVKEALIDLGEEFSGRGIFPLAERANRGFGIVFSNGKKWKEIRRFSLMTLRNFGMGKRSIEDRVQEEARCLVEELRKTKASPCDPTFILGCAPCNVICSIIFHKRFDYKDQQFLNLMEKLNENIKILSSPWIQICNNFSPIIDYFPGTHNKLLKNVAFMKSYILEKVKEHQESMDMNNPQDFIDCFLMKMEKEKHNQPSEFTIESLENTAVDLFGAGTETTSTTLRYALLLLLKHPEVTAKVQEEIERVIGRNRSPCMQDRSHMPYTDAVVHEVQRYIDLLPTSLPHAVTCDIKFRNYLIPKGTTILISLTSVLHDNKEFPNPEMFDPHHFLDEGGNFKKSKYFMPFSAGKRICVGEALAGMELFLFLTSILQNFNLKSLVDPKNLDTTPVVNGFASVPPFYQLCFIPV
The method, then: as §1

For the next data set, the target named is T4, CYP2D6 (Homo sapiens, UniProt P10635).
T4 construct: pooled human liver microsomes were assayed at 0.25 mg/mL concentration; from tissue; host or cells: pooled human liver microsomes
T4 sequence (P10635 whole entry): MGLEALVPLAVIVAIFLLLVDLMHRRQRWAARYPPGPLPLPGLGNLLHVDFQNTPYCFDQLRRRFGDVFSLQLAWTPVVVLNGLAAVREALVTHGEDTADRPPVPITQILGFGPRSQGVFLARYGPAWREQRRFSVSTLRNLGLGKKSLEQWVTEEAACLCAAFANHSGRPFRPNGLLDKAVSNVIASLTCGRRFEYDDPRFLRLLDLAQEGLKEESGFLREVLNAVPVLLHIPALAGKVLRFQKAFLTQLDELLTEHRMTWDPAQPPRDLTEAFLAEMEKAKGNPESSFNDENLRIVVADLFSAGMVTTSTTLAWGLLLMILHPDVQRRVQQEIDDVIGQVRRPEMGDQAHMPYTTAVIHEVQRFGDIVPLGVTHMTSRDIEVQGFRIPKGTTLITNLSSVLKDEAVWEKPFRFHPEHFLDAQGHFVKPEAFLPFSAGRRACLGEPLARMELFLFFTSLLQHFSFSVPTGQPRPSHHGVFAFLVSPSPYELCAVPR
The conditions noted are these: probe dextromethorphan (O-demethylation), pooled human liver microsomes 0.25 mg/mL, read-out: CYP inhibition (% at 10 μM) 2D6. The method, then:
as §1

In a further data set the target is T5, CYP3A4 (Homo sapiens, UniProt P08684).
T5 construct: pooled human liver microsomes were assayed at 0.25 mg/mL concentration; from tissue; host or cells: pooled human liver microsomes
T5 sequence (P08684 whole entry): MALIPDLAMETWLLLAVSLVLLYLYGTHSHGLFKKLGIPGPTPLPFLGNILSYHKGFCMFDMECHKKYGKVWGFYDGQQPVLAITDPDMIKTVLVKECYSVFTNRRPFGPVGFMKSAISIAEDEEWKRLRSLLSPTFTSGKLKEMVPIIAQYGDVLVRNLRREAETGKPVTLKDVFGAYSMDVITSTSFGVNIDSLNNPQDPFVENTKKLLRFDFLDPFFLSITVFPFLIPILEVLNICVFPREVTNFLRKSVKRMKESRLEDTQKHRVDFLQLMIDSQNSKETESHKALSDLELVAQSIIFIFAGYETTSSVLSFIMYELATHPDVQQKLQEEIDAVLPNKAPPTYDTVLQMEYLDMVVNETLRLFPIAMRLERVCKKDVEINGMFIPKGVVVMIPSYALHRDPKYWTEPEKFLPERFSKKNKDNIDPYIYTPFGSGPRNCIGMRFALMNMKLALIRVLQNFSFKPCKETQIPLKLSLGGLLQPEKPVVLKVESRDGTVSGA
The conditions noted are these: probe midazolam (1′-hydroxylation), pooled human liver microsomes 0.25 mg/mL, read-out: CYP inhibition (% at 10 μM) 3A4. The method, then:
as §1
On the technique in general: Liver microsomes are a subcellular fraction often used to study metabolism.

Molecules are shown by their SMILES. A value given as a limit tells only on which side of the number the result lay.

T2 sequence (P33261 whole entry): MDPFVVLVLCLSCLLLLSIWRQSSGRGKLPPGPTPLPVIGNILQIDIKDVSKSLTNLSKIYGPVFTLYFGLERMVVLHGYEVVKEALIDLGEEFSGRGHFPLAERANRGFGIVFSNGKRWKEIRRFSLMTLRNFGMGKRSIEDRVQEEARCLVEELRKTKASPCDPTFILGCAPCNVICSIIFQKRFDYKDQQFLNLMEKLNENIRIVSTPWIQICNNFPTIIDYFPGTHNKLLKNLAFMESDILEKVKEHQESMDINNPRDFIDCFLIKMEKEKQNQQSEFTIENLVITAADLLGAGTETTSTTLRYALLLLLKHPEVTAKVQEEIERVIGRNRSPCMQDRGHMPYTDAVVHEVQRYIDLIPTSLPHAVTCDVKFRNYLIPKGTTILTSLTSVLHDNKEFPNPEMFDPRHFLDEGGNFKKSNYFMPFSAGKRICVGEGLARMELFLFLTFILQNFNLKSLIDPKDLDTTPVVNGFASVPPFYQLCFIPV

Turning to `CC(=O)c1cccc(NC(=O)Nc2ccc3sc(NS(=O)(=O)c4ccc(C)cc4)nc3c2)c1` [NIC7, N-(5-(3-(3-acetylphenyl)ureido)benzo[d]thiazol-2-yl)-4-methylbenzenesulfonamide], the inhibition (in general, the share of the control response that was lost under treatment) at 10 min, 10 µM on CYP1A2 is below 1%; at CYP2C19, below 1%; at CYP2C9 (probe tolbutamide (4-hydroxylation), pooled human liver microsomes 0.25 mg/mL, tolbutamide, read-out: CYP inhibition (% at 10 μM) 2C9), 34.2%; on CYP2D6, 9.8%; on CYP3A4, below 1%. Moreover, the “CYP enzyme selectivity of inhibition” value at CYP2C9 (five P450 enzymes, 10 μM) is “acted mainly on CYP2C9 enzyme and hardly acted on other types of CYP enzymes”.
